In patent US20220041667A1, “TARGETING OF MAKAP-PDE4D3 COMPLEXES IN NEURODEGENERATIVE DISEASE” (The Board of Trustees of the Leland Stanford Junior …, priority 2018, published 2022):

B1: mAKAP-SR-GFP: GFP-tagged fragment encoding the mAKAP spectrin-repeat domains (amino acid residues 586-1286) (protein)
chain: GSDSIKSPVPLLSKNKSQKSSPPAPCHATQNGQVVEAWYGSDEYLALPSHLKQTEVLALKLESLTKLLPQKPRGETIQDIDDWELSEMNSDSEIYPTYHIKKKHTRLGTVSPSSSSDIASSLGESIESGPLSDILSDEDLCLPLSSVKKFTDEKSERPSSSEKNESHSATRSALIQKLMHDIQHQENYEAIWERIEGFVNKLDEFIQWLNEAMETTENWTPPKAETDSLRLYLETHLSFKLNVDSHCALKEAVEEEGHQLLELVVSHKAGLKDTLRMIASQWKELQRQIKRQHSWILRALDTIKAEILATDVSVEDEEGTGSPKAEVQLCHLETQRDAVEQMSLKLYSEQYTSGSKRKEEFANMSKAHAEGSNGLLDFDSEYQELWDWLIDMESLVMDSHDLMMSEEQQQHLYKRYSVEMSIRHLKKSELLSKVEALKKGGLSLPDDILEKVDSINEKWELLGKTLREKIQDTIAGHSGSGPRDLLSPESGSLVRQLEVRIKELKRWLRDTELFIFNSCLRQEKEGTSAEKQLQYFKSLCREIKQRRRGVASILRLCQHLLDDRDTCNLNADHQPMQLIIVNLERRWEAIVMQAVQWQTRLQKKMGKESETLNVIDPGLMDLNGMSEDALEWDETDISNKLISVHEESNDLDQDPEPMLPAVKLEETHHKDSGYEEEAGDCGGSPYTSNITAPSSPHIYQV
modifications: left off: large carriers

Key:
[1] = tested on: hippocampal neurons; test: Neurite extension assay (length of longest neurite) in primary hippocampal neurons; assay type: cell-based, rat; settings: for effect on neurite extension (pharmacological induction): hippocampal neurons, 40 mM KCl, 10 μM FSK, 100 μM IBMX, 20 μM milrinone or 10 μM rolipram for 2 days
Procedure: Primary rat hippocampal neurons: Hippocampal cultures were prepared from Sprague Dawley rat embryonic day 18 embryos. Briefly, the rat hippocampal CA1-CA3 region was dissected in PBS medium with 10 mM D-glucose and digested with 0.05% trypsin-EDTA in PBS with 11 mM D-glucose for 30 min at 37° C. The dissociated tissues were centrifuged at 250 g for 2 min and then triturated with fire polished glass pipet in Hank's balanced salt solution (HBSS) with calcium and magnesium in plating medium (10% v/v horse serum in DMEM). Dissociated neurons were plated on nitric acid-treated 25-mm cover glass coated with poly-L-lysine in plating medium. Four hours after plating, the medium was replaced with maintenance medium supplemented with 1% N2, 2% B27 (Invitrogen, Carlsbad, Calif., USA), 5 mM D-glucose, 1 mM sodium pyruvate. Four days later, 4 μM arabinosyl cytosine was added to inhibit glial proliferation and the neurons were either transfected with JPEI or infected with adenovirus.
Live cell imaging was performed 36-72 h after transfection/infection as described below. For neurite extension assays, the cells were cultured for two days in DMEM with 1 μg/ml chicken egg albumin and 1 mM sodium pyruvate. 40 mM KCl, 10 μM FSK, 100 μM IBMX, 20 μM Milrinone, 10 μM Rolipram were included as indicated. Two days later, the neurons were fixed and stained with antibodies. Nuclei were counter stained with DAPI and SlowFade Gold antifade solution (Molecular Probes) was added before coverslip mounting. Images were acquired with IPLab or Slidebook 6 by wide-field microscopy (Leica DMI 6000B or Zeiss Axio Observer 7) and processed with Adobe PhotoShop CSS 12.1. The length of the longest neurite for ˜15 neurons average per condition was measured for each experiment with ImageJ with Simple Neurite Tracer plugin. Other neuronal images were acquired using a Zeiss 880 confocal microscope.

[2] = target: PKA (protein kinase A, in Cos-7 cells); test: cell-based or functional assay

| Molecule | effect on neurite extension (pharmacological induction) [1] | also measured |
| --- | --- | --- |
| CC(C)Cn1c(=O)n(C)c(=O)c2[nH]cnc21 [IBMX, 3-isobutyl-1-methylxanthine] | induced neurite extension |  |
| mAKAPα WT (N-terminally myc-tagged rat mAKAPα) (from UniProt Q9WVC7 1-2314) |  | amplitude of PN-AKAR4 FRET transient after FSK pulse in Cos-7 cells [2]: 50% |
| [Cl-].[K+] [KCl] | induced neurite extension | increase in axon extension due to KCl depolarization alone ([1]; GFP-expressing hippocampal neurons): 29%; increase in axon extension due to KCl depolarization alone ([1]; mCherry-nesprin-expressing hippocampal neurons): 37% |
| Cc1[nH]c(=O)c(C#N)cc1-c1ccncc1 [milrinone] | no effect on neurite growth |  |
| COc1ccc(C2CNC(=O)C2)cc1OC1CCCC1 (centres unmarked) [rolipram] | induced neurite extension |  |
| B1 |  | effect on axon outgrowth (longest neurite length) ([1]; hippocampal neurons in defined media and with chronic KCl depolarization, vs GFP control): inhibited axon outgrowth |
